Results on one molecule are retold here after US11466006B2, “Dual selective PI3 delta and gamma kinase inhibitors” (Rhizen Pharmaceuticals SA, priority 2013, dated 2022).

The test system of one experiment is pAKT. Nature of the experiment: Inhibition of AKT phosphorylation in B-lymphoma cell lines. The class given is cell-based. As to conditions: LY-1, LY-10, Daudi, JEKO, REC and MAVER cells; 48 hours. The protocol: LY-1, LY-10, Daudi, JEKO, REC and MAVER cells were incubated with desired concentrations of [compound A1] for 48 hours. Cells were lysed and pAKT was determined by Western Blotting. Bands were quantified using ImageJ and normalized to actin.

The subject of experiment [1] is anti-human CD3/CD28 co-stimulated primary T-cells. Nature of the experiment: Cytokine assay in anti-human CD3 and CD28 co-stimulated primary T-cells (ELISA). The class given is cell-based. The following applies: T-cell, anti-human CD3-CD28 induced, 24 h, eight independent experiments. On the procedure: The objective of this study was to assess the inhibitory potential of Compound A1 on cytokines produced by anti-human CD3/CD28 co-stimulated primary T-cells.
• Plates were coated with 50 μl of anti-human CD3 at a concentration of 100 ng/ml either overnight at 4° C. or for 2 h at 37° C. After incubation, plates were washed twice with sterile PBS to remove unbound antibody. • Isolated human T-cells were re-suspended to 0.625×10^6 cells per ml in 1.5 ml tubes and 1 μl of drug dilution (1000×) was added. A DMSO blank and un-induced blank were maintained. • Cells were incubated with compound at room temperature for 30 min and then added to anti-human CD3 coated wells of a 96-well plate, 240 μl each. Anti-human CD28 was added immediately, 10 μl (25×) per well. • Plate was incubated at 37° C., 5% CO2 for 24 h. • Plates were centrifuged at 4000 rpm at room temperature, supernatant was collected and stored at −20° C. • Cytokines were determined using a commercial ELISA kit with absorbance read at 450 and 570 nm.

In the next experiment the test system is Lewis rats. Nature of the experiment: Collagen induced arthritis in Lewis rats. It is filed as in vivo, rat.
Another experiment has as its target Pi3K γ (Homo sapiens, UniProt P48736). Description: Fluorescent (HTRF) determination of PI3 kinase enzyme activity, gamma isoform. On the set-up: purchased Millipore (assay kit). As to conditions: Table 1, HTRF; read-out: IC50 (nM) Pi3K γ. The class given is biochemical. An excerpt: Phosphoinositide 3 kinases (PI3K) belong to a class of lipid kinases that play a critical role in the regulation of several key cellular processes. The PI3K are capable of phosphorylating the 3-hydroxy position of phosphoinositols thereby generating second messengers involved in downstream signalling events. The homogenous time resolved fluorescence (HTRF) assay allows detection of 3,4,5-triphosphate (PIP3) formed as a result of phosphorylation of phosphotidylinositol 4,5-biphosphate (PIP2) by PI3K isoforms such as α, β, γ or δ.
PI3K isoform activity for α, β, γ or δ was determined using a PI3K human HTRF™ Assay Kit (Millipore, Billerica, Mass.) with modifications. All incubations were carried out at room temperature. Briefly, 0.5 μl of 40× inhibitor (in 100% DMSO) or 100% DMSO were added to each well of a 384-well white plate (Greiner Bio-One, Monroe, N.C.) containing 14.5 μl 1× reaction buffer /PIP2 (10 mM MgCl2, 5 mM DTT, 1.38 μM PIP2) mix with or without enzyme, followed by 5 μl/well of 400 μM ATP and incubated for an additional 30 minutes. Reaction was terminated by adding 5 μl/well stop solution (Millipore, Billerica, Mass.). […] HRTF ratio was measured on a microplate reader (BMG Labtech., Germany) at an excitation wavelength of 337 nm and emission wavelengths of 665 and 615 nm with an integration time of 400 msec counting delay of 50 msec.

Another experiment concerns Primary CLL cells. Nature of the experiment: Anti-cancer activity in human CLL cells (MTS cytotoxicity). The class given is cell-based. The following applies: CLL cell, 72 h, 3 days, read-out: median EC50, cytotoxicity in CLL cells. On the procedure: Primary CLL cells were enriched using Rosette-Sep B cells from Stem Cell Technology, generally giving purity of >97% of B cells/CLL cells. Cells were seeded at 2.5×10^5 per well in a 96 well with either serum free medium (SFM) or SFM+10% heat-inactivated fetal bovine serum (volume 100 microliters) in the presence of desired concentrations of the test compound and cultured for 3 days at 37° C. in a carbon dioxide incubator. Cytotoxicity was determined using the MTS assay.

The subject of the next experiment is male Balb/c mice. Description: Acute cigarette smoke induced cell infiltration in male Balb/c mice. As to conditions: 0.3, 1, or 3 mg/kg/BID, cigarette smoke exposed mice. The class given is in vivo, mouse. An excerpt: Animals (male Balb/c mice) are to be acclimatized for seven days prior to the start of the experiment. Animals are then to be randomly distributed to various groups based on their body weights. On day 1, mice is to be administered test compound or vehicle by oral/intranasal route and after 1 hr test compound administration animals are to be placed in whole body exposure box. On day 1 and d2 mice are exposed to the mainstream smoke of 6 cigarettes and of 8 cigarettes on day 3, and of 10 cigarettes on day 4. […] The total number of white blood cells is to be determined in BAL fluid and blood using a blood cell counter and adjusted to 1×10^6 cell/ml. Differential cell count is calculated manually. […] The number of each cell type among 300 white blood cells in the cell smear are to be determined and expressed as a percentage, and the number of neutrophils and macrophages in each BAL fluid are to be calculated. • Results: As depicted in FIGS. 7A and 7B, Compound A1 reduced macrophages and neutrophil infiltration into BALF thereby indicating a therapeutic role in chronic obstructive pulmonary diseases Assay 16: Ovalbumin-Induced Nasal Eosinophil and Neutrophil Accumulation in Mice

Like-named read-outs stand apart in the source and are kept apart here.

Chain of Pi3K γ (P48736 whole entry, canonical isoform): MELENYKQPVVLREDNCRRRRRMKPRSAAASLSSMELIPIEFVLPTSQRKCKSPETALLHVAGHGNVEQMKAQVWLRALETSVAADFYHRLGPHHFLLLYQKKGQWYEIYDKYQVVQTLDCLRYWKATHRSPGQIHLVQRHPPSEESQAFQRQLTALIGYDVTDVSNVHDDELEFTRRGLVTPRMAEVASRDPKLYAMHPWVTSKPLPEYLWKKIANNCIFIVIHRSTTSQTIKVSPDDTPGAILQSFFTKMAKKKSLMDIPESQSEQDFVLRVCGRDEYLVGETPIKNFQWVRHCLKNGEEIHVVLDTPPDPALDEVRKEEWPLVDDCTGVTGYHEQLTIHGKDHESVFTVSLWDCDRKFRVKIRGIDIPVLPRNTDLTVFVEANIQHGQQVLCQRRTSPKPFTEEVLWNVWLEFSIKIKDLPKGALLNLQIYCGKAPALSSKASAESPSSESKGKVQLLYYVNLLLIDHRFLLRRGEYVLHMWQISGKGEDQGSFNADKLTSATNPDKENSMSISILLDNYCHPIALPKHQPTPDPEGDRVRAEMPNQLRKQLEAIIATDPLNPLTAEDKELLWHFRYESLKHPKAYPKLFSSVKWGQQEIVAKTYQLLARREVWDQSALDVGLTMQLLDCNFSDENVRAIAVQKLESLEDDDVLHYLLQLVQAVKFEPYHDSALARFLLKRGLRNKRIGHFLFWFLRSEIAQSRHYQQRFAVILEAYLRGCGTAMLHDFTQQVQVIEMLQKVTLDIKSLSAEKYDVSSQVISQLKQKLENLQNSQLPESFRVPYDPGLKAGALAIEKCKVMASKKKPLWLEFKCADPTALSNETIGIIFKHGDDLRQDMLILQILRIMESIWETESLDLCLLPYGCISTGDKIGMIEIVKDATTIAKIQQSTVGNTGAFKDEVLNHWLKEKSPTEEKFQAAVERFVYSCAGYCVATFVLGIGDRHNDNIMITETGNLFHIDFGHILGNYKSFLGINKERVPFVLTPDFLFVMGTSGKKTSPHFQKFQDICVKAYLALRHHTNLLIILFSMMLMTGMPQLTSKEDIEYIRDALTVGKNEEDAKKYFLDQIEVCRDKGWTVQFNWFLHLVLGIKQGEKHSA

Usually EC50 stands for the concentration giving half of the maximal effect. In general, IC50 refers to the concentration that inhibits the measured activity by half. For `CC[C@H](Nc1ncnc2[nH]cnc12)c1oc2ccccc2c(=O)c1-c1cccc(F)c1` [Compound A1, (S)-2-(1-(9H-purin-6-ylamino)propyl)-3-(3-fluorophenyl)-4H-chromen-4-one], the EC50 with pAKT was 20 to 200 nM; in the experiment with Primary CLL cells (10% FBS media), < 700 nM; in the experiment on Primary CLL cells (serum-free medium), < 100 nM. The IC50 in experiment [1] (read-out: IC50, IFNγ) is 9.54 nM; in experiment [1] (read-out: IC50, IL2), 20.6 nM; in experiment [1] (read-out: IC50, TNFα) it was 24 nM; on Pi3K γ it was 24.1 nM. For the same molecule, the “histological analysis of joints at study end” value in the experiment on Lewis rats (15 mg/kg) is given as “complete structural preservation”. In addition, in the experiment on Lewis rats (15 mg/kg/BID), the “individual and summed histopathological scores for knee and ankle” value is reported as “significant reduction”. Further, in the experiment on Lewis rats (rat CIA model, dosed therapeutically, oral), the “reduction of knee and ankle swelling” value is “significant efficacy”. For the same molecule, in the experiment with male Balb/c mice, the “macrophages and neutrophil infiltration into BALF” value was “reduced”.
